In ChEMBL document CHEMBL1135560, “Parallel synthesis and anti-malarial activity of a sulfonamide library” (Bioorg Med Chem Lett, 2002):

These compounds were tested on Plasmodium falciparum (assay: Growth inhibition of Plasmodium falciparum at 10 nM).
Assay type: functional

| Compound | inhibition at 0.01 µM |
| --- | --- |
| Cc1ccc(S(=O)(=O)NCCCN2CCN(CCCNc3ccnc4cc(Cl)ccc34)CC2)cc1 | 54% |
| O=S(=O)(Cc1ccccc1)NCCCN1CCN(CCCNc2ccnc3cc(Cl)ccc23)CC1 | 4% |
| Cc1ccc([N+](=O)[O-])cc1S(=O)(=O)NCCCN1CCN(CCCNc2ccnc3cc(Cl)ccc23)CC1 | 56% |
| O=S(=O)(NCCCN1CCN(CCCNc2ccnc3cc(Cl)ccc23)CC1)c1ccc(Cl)cc1 | 26% |
| O=[N+]([O-])c1ccccc1S(=O)(=O)NCCCN1CCN(CCCNc2ccnc3cc(Cl)ccc23)CC1 | 0% |
| CC(=O)c1cccc(S(=O)(=O)NCCCN2CCN(CCCNc3ccnc4cc(Cl)ccc34)CC2)c1 | 22% |
| O=[N+]([O-])c1cccc(S(=O)(=O)NCCCN2CCN(CCCNc3ccnc4cc(Cl)ccc34)CC2)c1 | 48% |
| O=S(=O)(NCCCN1CCN(CCCNc2ccnc3cc(Cl)ccc23)CC1)c1cc(C(F)(F)F)ccc1Cl | 60% |
| CCS(=O)(=O)NCCCN1CCN(CCCNc2ccnc3cc(Cl)ccc23)CC1 | 1% |
| COc1ccc(Br)cc1S(=O)(=O)NCCCN1CCN(CCCNc2ccnc3cc(Cl)ccc23)CC1 | 64% |
| O=S(=O)(NCCCN1CCN(CCCNc2ccnc3cc(Cl)ccc23)CC1)c1ccc(F)cc1 | 20% |
| O=S(=O)(/C=C/c1ccccc1)NCCCN1CCN(CCCNc2ccnc3cc(Cl)ccc23)CC1 | 0% |
| O=S(=O)(NCCCN1CCN(CCCNc2ccnc3cc(Cl)ccc23)CC1)c1ccccc1F | 11% |
| CC(C)S(=O)(=O)NCCCN1CCN(CCCNc2ccnc3cc(Cl)ccc23)CC1 | 25% |

Each compound was assayed on Plasmodium falciparum (assay: Antimalarial activity against chloroquine-resistant Plasmodium falciparum FcB1).
Assay type: functional, organism-based

| Compound | IC50 |
| --- | --- |
| Clc1ccc2c(NCCCN3CCN(CCCNc4ccnc5cc(Cl)ccc45)CC3)ccnc2c1 | 0.112 µM |

These compounds were tested on MRC5 (assay: Cytotoxicity tests were performed on a human diploid embryonic lung cell line (MRC5) using the colorimetric MTT assay).
Assay type: functional, cell-based

| Compound | IC50 |
| --- | --- |
| CCN(CC)CCCC(C)Nc1ccnc2cc(Cl)ccc12 (stereo unspecified) [CHLOROQUINE] | 50 µM |
